# pIC50: −log10 of the molar value.
# Tests used:
# [1] = molecular target: T1, Arachidonate 5-lipoxygenase-activating protein (Homo sapiens, UniProt P20292); experiment: The compound was tested for the inhibition of binding of [125I]- L- 691,831 binding to 5-lipoxygenase activating protein (FLAP)
# T1 sequence (P20292 whole entry): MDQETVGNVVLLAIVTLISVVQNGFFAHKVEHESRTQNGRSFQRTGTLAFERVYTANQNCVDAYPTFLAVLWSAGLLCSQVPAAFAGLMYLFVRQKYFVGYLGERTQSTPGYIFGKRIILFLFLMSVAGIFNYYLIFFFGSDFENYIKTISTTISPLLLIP
# [2] = organism: Homo sapiens; experiment: Leukotriene synthesis inhibition activity in the Human PMN assay; type: functional, organism-based
# [3] = organism: Homo sapiens; experiment: Leukotriene synthesis inhibition activity in the Human whole blood assay; type: functional, organism-based
# [4] = molecular target: T1, Arachidonate 5-lipoxygenase-activating protein; experiment: The compound was tested for the inhibition of binding of [125I]- L- 691,831 binding to 5-lipoxygenase activating protein
smiles,measurement,setting,value
O=C(O)CSC(CCCc1ccccc1)(CCc1ccccc1)c1ccc(OCc2ccc3ccccc3n2)cc1 (stereo not given),pIC50,[1],8.40
c1ccc(COCC(OCc2ccccc2)c2ccc(OCc3ccc4ccccc4n3)cc2)cc1 (stereo not given),pIC50,[2]; Homo sapiens,7.52
CC(C)c1ccc2c(c1)c(SC(C)(C)C)c(CC(C)(C)C(=O)O)n2Cc1ccc(Cl)cc1,pIC50,[3],5.68
same,pIC50,[2]; Homo sapiens,8.52
same,pIC50,[1],7.64
Cc1c(CC(C)(C)C(=O)O)n(Cc2ccc(Cl)cc2)c2ccc(OCc3ccc4ccccc4n3)cc12,pIC50,[2]; Homo sapiens,8.52
COc1ccc2c(c1)c(C)c(CC(C)(C)C(=O)O)n2Cc1ccc(Cl)cc1,pIC50,[2]; Homo sapiens,6.06
"O=C(O)CSC(CCCc1ccc(Cl)cc1)c1ccc(OCc2ccc3ccccc3n2)cc1 (single isomer, unassigned; (+))",pIC50,[2],8.30
"O=C(O)CSC(CCCc1ccc(Cl)cc1)c1ccc(OCc2ccc3ccccc3n2)cc1 (single isomer, unassigned; (-))",pIC50,[2],8.00
O=C(O)CSC(CCCc1ccc(Cl)cc1)c1ccc(OCc2ccc3ccccc3n2)cc1 (stereo in doubt; 1),pIC50,[3],< 4.66
same,pIC50,[2],7.70
same,pIC50,[1],6.91
CC(C)(C)Sc1c(CC(C)(C)C(=O)O)n(Cc2ccc(Cl)cc2)c2ccc(OCc3ccc4ccccc4n3)cc12 [QUIFLAPON],pIC50,[3],6.30
same,pIC50,[2]; Homo sapiens,8.52
same,pIC50,[4],8.70

# From ChEMBL document CHEMBL1126364, “A new class of leukotriene biosynthesis inhibitors: The discovery of MK0591” (Bioorg Med Chem Lett, 1992)
